From patent EP4810052A2, “HCRHR2 SELECTIVE POLYPEPTIDES” (Gubra A/S, priority 2023, dated 2026)
Read-outs that look alike come from different tables or passages of the source. Starred links: 1 amine or outer side, 2 acyl side, 3 side chain; linkers in the order of their positions; H or OH if unused. Non-standard residues stand in square brackets, D forms with d. Residues, ends and D or L forms follow the SMILES beside them. Groups on a side chain read outwards from the residue. *: point of attachment. C20 diacid = O=C(O)CCCCCCCCCCCCCCCCCCC(=O)*; γGlu = O=C(O)[C@H](CCC(=O)[*:2])N[*:1]; NMeI = CC[C@H](C)[C@H](NC)C(=O)O; Nle = CCCC[C@H](N)C(=O)O; Ac5c = NC1(C(=O)O)CCCC1; AEEA = NCCOCCOCC(=O)O; Aib = CC(C)(N)C(=O)O

Assays:
hCRHR2 = biological target: T1, hCRHR2 (Homo sapiens, UniProt Q13324); assay: HTRF cAMP assay, determination of hCRHR2 potency (peptide libraries 5 conc., purified peptides 11 conc.); assay type: cell-based
T1 sequence (Q13324 1-411): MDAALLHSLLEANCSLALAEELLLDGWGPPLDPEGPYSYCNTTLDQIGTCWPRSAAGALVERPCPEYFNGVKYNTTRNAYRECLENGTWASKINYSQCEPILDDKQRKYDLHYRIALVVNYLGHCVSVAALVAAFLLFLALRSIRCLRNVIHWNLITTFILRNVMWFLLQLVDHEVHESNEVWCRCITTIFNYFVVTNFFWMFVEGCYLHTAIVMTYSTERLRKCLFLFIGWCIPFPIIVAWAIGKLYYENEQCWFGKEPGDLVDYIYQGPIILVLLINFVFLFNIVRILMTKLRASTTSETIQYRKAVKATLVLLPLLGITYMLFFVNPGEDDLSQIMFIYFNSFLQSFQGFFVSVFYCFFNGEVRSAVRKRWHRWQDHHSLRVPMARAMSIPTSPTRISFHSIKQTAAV
Procedure, shortened: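 Agonist peptides are added to suspended, freshly thawed CHO-K1 cells that stably carry the human receptor. Intracellular cAMP competes with d2-cAMP for a cryptate-tagged antibody, lowering the FRET signal. A variable-slope sigmoid curve is fitted to obtain EC50.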

hCRHR1 = biological target: T2, hCRHR1 (Homo sapiens, UniProt P34998); assay: HTRF cAMP assay, determination of hCRHR1 potency (peptide libraries 5 conc., purified peptides 11 conc.); assay type: cell-based
T2 sequence (P34998 24-415): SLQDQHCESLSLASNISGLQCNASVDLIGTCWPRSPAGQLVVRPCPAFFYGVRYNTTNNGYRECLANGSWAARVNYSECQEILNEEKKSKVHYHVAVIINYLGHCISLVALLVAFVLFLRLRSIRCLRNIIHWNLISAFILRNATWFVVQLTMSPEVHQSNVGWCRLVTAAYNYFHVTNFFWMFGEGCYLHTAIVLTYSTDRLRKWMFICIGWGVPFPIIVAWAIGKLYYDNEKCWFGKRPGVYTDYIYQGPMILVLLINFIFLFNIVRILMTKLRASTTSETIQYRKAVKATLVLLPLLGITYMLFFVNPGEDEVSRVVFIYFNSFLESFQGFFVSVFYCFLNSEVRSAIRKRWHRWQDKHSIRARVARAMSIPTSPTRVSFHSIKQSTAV
Procedure, shortened: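 CHO-K1 cells stably expressing human CRHR1, thawed from frozen stocks just before use, were stimulated in suspension with agonist peptides. cAMP was measured by HTRF competitive immunoassay (cryptate anti-cAMP antibody vs d2-cAMP).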

[1] = library peptides, matched molecular pairs L vs Nle in position X^38, read-out: Potency hCRHR2 pEC50 (converted)
[2] = library peptides, matched molecular pairs L vs Nle in position X^38, read-out: Potency hCRHR1 pEC50 (converted)

EC50 (hCRHR2; [1]) [nM]	EC50 (hCRHR1; [2]) [nM]	Structure (SMILES)	further results
0.631	39800	CC[C@H](C)[C@H](N)C(=O)N[C@H](C(=O)N[C@@H](CC(C)C)C(=O)N[C@@H](CO)C(=O)N[C@@H](CC(C)C)C(=O)N[C@@H](CC(=O)O)C(=O)N[C@H](C(=O)N1CCC[C@H]1C(=O)N[C@H](C(=O)NCC(=O)N[C@@H](CC(C)C)C(=O)N[C@@H](CC(C)C)C(=O)N[C@@H](CCC(N)=O)C(=O)N[C@H](C(=O)N[C@@H](CC(C)C)C(=O)N[C@@H](CC(C)C)C(=O)N[C@@H](CO)C(=O)N[C@@H](CCC(N)=O)C(=O)N[C@@H](C)C(=O)N[C@@H](CCCNC(=N)N)C(=O)N[C@@H](C)C(=O)N[C@@H](CCCNC(=N)N)C(=O)N[C@@H](C)C(=O)N[C@@H](C)C(=O)N[C@@H](CCCNC(=N)N)C(=O)N[C@@H](CCC(=O)O)C(=O)N[C@@H](CCC(N)=O)C(=O)N[C@@H](C)C(=O)N[C@@H](CCCCNC(=O)COCCOCCNC(=O)COCCOCCNC(=O)CC[C@H](NC(=O)CC[C@H](NC(=O)CCCCCCCCCCCCCCCCCCC(=O)O)C(=O)O)C(=O)O)C(=O)N[C@H](C(=O)N[C@@H](CC(N)=O)C(=O)N[C@@H](C)C(=O)N[C@@H](CCC(=O)O)C(=O)N[C@H](C(=O)N[C@@H](CC(C)C)C(=O)N[C@@H](C)C(=O)N[C@@H](CCC(=O)O)C(=O)N[C@H](C(N)=O)[C@@H](C)CC)[C@@H](C)CC)[C@@H](C)O)[C@@H](C)CC)[C@@H](C)CC)C(C)C)C(C)C [compound 88] (H-IVLSLDVPIGLLQILLSQARARAAREQAK([AEEA-AEEA-γGlu-γGlu-C20 diacid])TNAEILAEI-NH2)	–
–	–	CCCC[C@H](NC(=O)[C@@H](NC(=O)[C@H](CCC(=O)O)NC(=O)[C@H](C)NC(=O)[C@H](CC(N)=O)NC(=O)C(C)(C)NC(=O)[C@H](CCCCNC(=O)COCCOCCNC(=O)COCCOCCNC(=O)CC[C@H](NC(=O)CC[C@H](NC(=O)CCCCCCCCCCCCCCCCCCC(=O)O)C(=O)O)C(=O)O)NC(=O)[C@H](C)NC(=O)[C@H](CCC(N)=O)NC(=O)[C@H](CCC(=O)O)NC(=O)[C@H](CCCNC(=N)N)NC(=O)[C@H](C)NC(=O)[C@H](C)NC(=O)[C@H](CCCNC(=N)N)NC(=O)[C@H](C)NC(=O)[C@H](CCCNC(=N)N)NC(=O)[C@H](C)NC(=O)[C@H](CCC(N)=O)NC(=O)[C@H](CCC(=O)O)NC(=O)[C@H](CC(C)C)NC(=O)[C@H](CC(C)C)NC(=O)[C@@H](NC(=O)[C@H](CCC(N)=O)NC(=O)[C@H](CC(C)C)NC(=O)[C@H](CC(C)C)NC(=O)CNC(=O)[C@@H](NC(=O)[C@@H]1CCCN1C(=O)[C@@H](NC(=O)[C@H](CC(=O)O)NC(=O)[C@H](CC(C)C)NC(=O)[C@H](CO)NC(=O)[C@H](CC(C)C)NC(=O)[C@@H](NC(=O)[C@@H](NC)[C@@H](C)CC)C(C)C)C(C)C)[C@@H](C)CC)[C@@H](C)CC)[C@@H](C)CC)C(=O)N[C@@H](C)C(=O)N[C@@H](CCC(=O)O)C(=O)N[C@H](C(N)=O)C(C)C [compound 124] (H-[NMeI]VLSLDVPIGLLQILLEQARARAAREQAK([AEEA-AEEA-γGlu-γGlu-C20 diacid])[Aib]NAEI[Nle]AEV-NH2)	EC50 (hCRHR2; Table 4, library peptides having X^38 = Nle, read-out: hCRHR2 pEC50 (converted)): 0.00631 nM; Selectivity hCRHR1 EC50/hCRHR2 EC50 (hCRHR2; Table 4, ratio, or comparison with Ref. 1 (SEQ ID NO: 205) / Ref. 2 (SEQ ID NO: 124)): 40378; EC50 (hCRHR1; Table 4, library peptides having X^38 = Nle, read-out: hCRHR1 pEC50 (converted)): 251 nM
–	–	CC[C@H](C)[C@H](N)C(=O)N[C@H](C(=O)N[C@@H](CC(C)C)C(=O)N[C@@H](CO)C(=O)N[C@@H](CC(C)C)C(=O)N[C@@H](CC(=O)O)C(=O)N[C@H](C(=O)N1CCC[C@H]1C(=O)N[C@H](C(=O)NCC(=O)N[C@@H](CC(C)C)C(=O)N[C@@H](CC(C)C)C(=O)N[C@@H](CCC(N)=O)C(=O)N[C@H](C(=O)N[C@@H](CC(C)C)C(=O)N[C@@H](CC(C)C)C(=O)N[C@@H](CCC(=O)O)C(=O)N[C@@H](CCC(N)=O)C(=O)N[C@@H](C)C(=O)N[C@@H](CCCNC(=N)N)C(=O)N[C@@H](C)C(=O)N[C@@H](CCCNC(=N)N)C(=O)N[C@@H](C)C(=O)N[C@@H](C)C(=O)N[C@@H](CCCNC(=N)N)C(=O)N[C@@H](CCC(N)=O)C(=O)N[C@@H](CCC(N)=O)C(=O)N[C@@H](C)C(=O)N[C@@H](CCCCNC(=O)COCCOCCNC(=O)COCCOCCNC(=O)CC[C@H](NC(=O)CC[C@H](NC(=O)CCCCCCCCCCCCCCCCCCC(=O)O)C(=O)O)C(=O)O)C(=O)N[C@H](C(=O)N[C@@H](CC(N)=O)C(=O)N[C@@H](C)C(=O)N[C@@H](CCC(=O)O)C(=O)N[C@H](C(=O)N[C@@H](CC(C)C)C(=O)N[C@@H](C)C(=O)N[C@@H](CCC(=O)O)C(=O)N[C@H](C(N)=O)[C@@H](C)CC)[C@@H](C)CC)[C@@H](C)O)[C@@H](C)CC)[C@@H](C)CC)C(C)C)C(C)C [SEQ ID NO: 27] (H-IVLSLDVPIGLLQILLEQARARAARQQAK([AEEA-AEEA-γGlu-γGlu-C20 diacid])TNAEILAEI-NH2)	EC50 (hCRHR2; Table 3, matched molecular pairs X^38 L vs Nle, peptide library of Example 4, read-out: hCRHR2 pEC50 (converted)): 0.316 nM; EC50 (hCRHR1; Table 3, matched molecular pairs X^38 L vs Nle, peptide library of Example 4, read-out: hCRHR1 pEC50 (converted)): 63100 nM
0.251	2	CCCC[C@H](NC(=O)[C@@H](NC(=O)[C@H](CCC(=O)O)NC(=O)[C@H](C)NC(=O)[C@H](CC(N)=O)NC(=O)[C@@H](NC(=O)[C@H](CCCCNC(=O)COCCOCCNC(=O)COCCOCCNC(=O)CC[C@H](NC(=O)CC[C@H](NC(=O)CCCCCCCCCCCCCCCCCCC(=O)O)C(=O)O)C(=O)O)NC(=O)[C@H](C)NC(=O)[C@H](CCC(N)=O)NC(=O)[C@H](CCC(=O)O)NC(=O)[C@H](CCCNC(=N)N)NC(=O)[C@H](C)NC(=O)[C@H](CCC(N)=O)NC(=O)[C@H](CCCNC(=N)N)NC(=O)[C@H](C)NC(=O)[C@H](CCCNC(=N)N)NC(=O)[C@H](C)NC(=O)[C@H](CCC(N)=O)NC(=O)[C@H](CCC(=O)O)NC(=O)[C@H](CC(C)C)NC(=O)[C@H](CC(C)C)NC(=O)[C@@H](NC(=O)[C@H](CCC(N)=O)NC(=O)[C@H](CC(C)C)NC(=O)[C@H](CC(C)C)NC(=O)CNC(=O)[C@@H](NC(=O)[C@@H]1CCCN1C(=O)C1(NC(=O)[C@H](CC(=O)O)NC(=O)[C@H](CC(C)C)NC(=O)[C@H](CO)NC(=O)[C@H](CC(C)C)NC(=O)[C@@H](NC(=O)[C@@H](N)[C@@H](C)CC)C(C)C)CCCC1)[C@@H](C)CC)[C@@H](C)CC)[C@@H](C)O)[C@@H](C)CC)C(=O)N[C@@H](C)C(=O)N[C@@H](CCC(=O)O)C(=O)N[C@H](C(N)=O)C(C)C [compound 79] (H-IVLSLD[Ac5c]PIGLLQILLEQARARQAREQAK([AEEA-AEEA-γGlu-γGlu-C20 diacid])TNAEI[Nle]AEV-NH2)	–
0.126	63.1	CCCC[C@H](NC(=O)[C@@H](NC(=O)[C@H](CCC(=O)O)NC(=O)[C@H](C)NC(=O)[C@H](CC(N)=O)NC(=O)[C@@H](NC(=O)[C@H](CCCCNC(=O)COCCOCCNC(=O)COCCOCCNC(=O)CC[C@H](NC(=O)CC[C@H](NC(=O)CCCCCCCCCCCCCCCCCCC(=O)O)C(=O)O)C(=O)O)NC(=O)[C@H](C)NC(=O)[C@H](CCC(N)=O)NC(=O)[C@H](CCC(=O)O)NC(=O)[C@H](CCCNC(=N)N)NC(=O)[C@H](CCC(N)=O)NC(=O)[C@H](C)NC(=O)[C@H](CCCNC(=N)N)NC(=O)[C@H](C)NC(=O)[C@H](CCCNC(=N)N)NC(=O)[C@H](C)NC(=O)[C@H](CCC(N)=O)NC(=O)[C@H](CCC(=O)O)NC(=O)[C@H](CC(C)C)NC(=O)[C@H](CC(C)C)NC(=O)[C@@H](NC(=O)[C@H](CCC(N)=O)NC(=O)[C@H](CC(C)C)NC(=O)[C@H](CC(C)C)NC(=O)CNC(=O)[C@@H](NC(=O)[C@@H]1CCCN1C(=O)[C@@H](NC(=O)[C@H](CC(=O)O)NC(=O)[C@H](CC(C)C)NC(=O)[C@H](CO)NC(=O)[C@H](CC(C)C)NC(=O)[C@@H](NC(=O)[C@@H](N)[C@@H](C)CC)C(C)C)C(C)C)[C@@H](C)CC)[C@@H](C)CC)[C@@H](C)O)[C@@H](C)CC)C(=O)N[C@@H](C)C(=O)N[C@@H](CCC(=O)O)C(=O)N[C@H](C(N)=O)C(C)C [compound 57] (H-IVLSLDVPIGLLQILLEQARARAQREQAK([AEEA-AEEA-γGlu-γGlu-C20 diacid])TNAEI[Nle]AEV-NH2)	–
